Laboratory results published in patent US20250340911A1, “METHOD FOR PRODUCING FROM FATTY ALCOHOLS MONOMERS FOR PRODUCING VARIOUS SYNTHETIC RESINS” (priority 2022, published 2025).

Tested on: recombinant Candida tropicalis Ct6 strain
Assay: Cytotoxicity of synthesized (biomass-derived) dialkyl ethers to recombinant strain, growth by absorbance at 600 nm
Assay type: cell-based
Settings: 0-5% ether in YPD medium, 48-well plate, 24 hours or more, ether synthesized in Example 1
Protocol: The cytotoxicity of the dioctyl ether synthesized as described above was analyzed. 200 μl of a mixed solution of YPD medium (10 g/L yeast extract, 20 g/L Bacto peptone, 20 g/L glucose) and each concentration (0, 0.25, 0.5, 1, 2, 3, 4, or 5%) of dioctyl ether was added to each well of a 48-well plate. After 2 μl of a culture of a recombinant Candida tropicalis Ct6 strain cultured overnight in YPD medium at 30° C. and 200 rpm was further added to each well, the absorbance at 600 nm was measured using a plate reader at 30° C. for 24 hours or more at 15-minute intervals. The maximum specific growth rate (μm) and lag time were calculated using the Gompertz growth equation.
The cytotoxicity of the didodecyl ether synthesized as described above was analyzed. 200 μl of a mixed solution of YPD medium and each concentration (0, 0.25, 0.5, 1, 2, 3, 4, or 5%) of didodecyl ether was added to each well of a 48-well plate. After 2 μl of a culture of a recombinant Candida tropicalis Ct6 strain cultured overnight in YPD medium at 30° C. and 200 rpm was further added to each well, the absorbance at 600 nm was measured using a plate reader at 33° C. for 24 hours or more at 15-minute intervals. The maximum specific growth rate and lag time were calculated using the Gompertz growth equation.

Compound: CCCCCCCCCCCCOCCCCCCCCCCCC [Didodecyl ether, didodecyl ether]
- cytotoxicity (maximum specific growth rate and lag time, Gompertz growth equation): almost no cytotoxicity

Compound: CCCCCCCCOCCCCCCCC [Dioctyl ether, dioctyl ether]
- cytotoxicity (maximum specific growth rate and lag time, Gompertz growth equation): almost no cytotoxicity
